According to article PMC8606745 (Frontiers in Microbiology, 2021):
Like-named read-outs stand apart in the source and are kept apart here. Peptide text beside a SMILES is read from it.

Columns and labels:
[1] = test system: X. fastidiosa subsp. fastidiosa IVIA 5387.2; type: cell-based, Xylella fastidiosa
[2] = test system: X. fastidiosa subsp. fastidiosa IVIA 5387.2
Gram-negative bacteria [3] = test system: Gram-negative bacteria; parameters: key: Xf: Xylella fastidiosa; Ec: Escherichia coli; Pa: Pseudomonas aeruginosa; Ab: Acinetobacter baumannii; Kp: Klebsiella pneumoniae; Bc: Burkholderia cenocepacia; Se: Salmonella enterica subsp. enterica; Sp: Salmonella pullorum; –: low or no activity; conditions: cited from earlier work
Gram-negative bacteria [4] = test system: Gram-negative bacteria; parameters: key: Xf: Xylella fastidiosa; Ec: Escherichia coli; Pa: Pseudomonas aeruginosa; Ab: Acinetobacter baumannii; Kp: Klebsiella pneumoniae; Bc: Burkholderia cenocepacia; Se: Salmonella enterica subsp. enterica; Sp: Salmonella pullorum; –: low or no activity; conditions: cited from earlier work; remark: listed apart in the source

Row | Compound | Biofilm formation Level (antibiofilm activity) ([1]; 50 µM) | Biofilm formation Ratio (treatment/NTC) ([1]; 50 µM) | Planktonic cells Ratio (treatment/NTC) ([1]; 50 µM) | Bactericidal activity: Reduction in viability (Log N0/N) ([2]; 50 µM) | Hemolysis (horse erythrocytes; 150 µM) [%] | Hemolysis (horse erythrocytes; 250 µM) [%] | Hemolysis (horse erythrocytes; 375 µM) [%] | Described activity: Antibacterial (Gram-negative bacteria [3]) | Described activity: Antibiofilm (Gram-negative bacteria [4]) | Bactericidal activity: Reduction in viability (Log N0/N) [2] [Log N0/N] | further results
1 | CC[C@H](C)[C@H](NC(=O)[C@H](CCCNC(=N)N)NC(=O)[C@@H](N)Cc1ccccc1)C(=O)N[C@@H](CCCNC(=N)N)C(=O)N[C@H](C(=O)N[C@@H](CCCNC(=N)N)C(=O)N[C@H](C(N)=O)C(C)C)C(C)C [FV7] (H-FRIRVRV-NH2; N-terminus assumed) | High (key: High: high antibiofilm activity (ratio of biofilm formation from 0.01 to 0.2); Moderate: moderate activity (ratio from 0.29 to 0.47); Low: low activity (ratio from 0.72 to 0.77)) | 0.20 ± 0.01 | 1.33 ± 0.17 | 0.07 ± 0.14 | 3.7 ± 0.4 | 4.4 ± 0.3 | 9.5 ± 1.4 | Ec, Pa, Se, Sp | Ec, Pa |  | 
2 | CC[C@H](C)[C@H](NC(=O)[C@H](CCCNC(=N)N)NC(=O)[C@H](Cc1ccccc1)NC(=O)[C@H](CCCNC(=N)N)NC(=O)[C@@H](N)CCCCN)C(=O)N[C@@H](CCCNC(=N)N)C(=O)N[C@H](C(=O)N[C@@H](CCCNC(=N)N)C(=O)N[C@H](C(=O)N[C@H](C(=O)N[C@@H](CCCNC(=N)N)C(=O)N[C@@H](CCCCN)C(N)=O)[C@@H](C)CC)C(C)C)C(C)C [HH15] (H-KRFRIRVRVIRK-NH2) |  |  |  |  | 2.3 ± 0.3 | 4.5 ± 1.9 | 4.0 ± 0.4 | Pa, Bc | Pa, Bc | 0.21 ± 0.02 | Biofilm formation Level (antibiofilm activity) [1]: High (key: High: high antibiofilm activity (ratio of biofilm formation from 0.01 to 0.2); Moderate: moderate activity (ratio from 0.29 to 0.47); Low: low activity (ratio from 0.72 to 0.77)); Biofilm formation Ratio (treatment/NTC) [1]: 0.14 ± 0.01; Planktonic cells Ratio (treatment/NTC) [1]: 2.50 ± 0.05
3 | CC[C@H](C)[C@H](NC(=O)CN)C(=O)N[C@@H](CC(C)C)C(=O)NCC(=O)N[C@@H](CCCCN)C(=O)N[C@@H](CC(C)C)C(=O)N[C@@H](Cc1c[nH]c2ccccc12)C(=O)N[C@@H](CCC(=O)O)C(=O)NCC(=O)N[C@H](C(=O)N[C@@H](CCCCN)C(=O)N[C@@H](CO)C(=O)N[C@H](C(=O)N[C@@H](Cc1ccccc1)C(N)=O)[C@@H](C)CC)C(C)C [HP1404] (H-GILGKLWEGVKSIF-NH2) |  |  |  |  | 100.0 ± 0.5 | 100.0 ± 3.9 | 100.0 ± 0.7 | Pa | Pa | 0.00 ± 0.12 | Biofilm formation Level (antibiofilm activity) [1]: High (key: High: high antibiofilm activity (ratio of biofilm formation from 0.01 to 0.2); Moderate: moderate activity (ratio from 0.29 to 0.47); Low: low activity (ratio from 0.72 to 0.77)); Biofilm formation Ratio (treatment/NTC) [1]: 0.15 ± 0.01; Planktonic cells Ratio (treatment/NTC) [1]: 2.75 ± 0.02
4 | CC[C@H](C)[C@H](NC(=O)[C@H](CCCNC(=N)N)NC(=O)[C@@H](NC(=O)[C@H](C)NC(=O)[C@@H](NC(=O)[C@@H](NC(=O)[C@H](CC(C)C)NC(=O)[C@H](CCCNC(=N)N)NC(=O)[C@@H](N)C(C)C)[C@@H](C)CC)C(C)C)C(C)C)C(=O)N[C@@H](Cc1c[nH]c2ccccc12)C(=O)N[C@@H](CCCNC(=N)N)C(=O)N[C@@H](CCCNC(=N)N)C(N)=O [IDR-1018] (H-VRLIVAVRIWRR-NH2; N-terminus and C-terminus assumed) | High (key: High: high antibiofilm activity (ratio of biofilm formation from 0.01 to 0.2); Moderate: moderate activity (ratio from 0.29 to 0.47); Low: low activity (ratio from 0.72 to 0.77)) | 0.06 ± 0.01 | 1.72 ± 0.07 | 1.80 ± 0.01 | 35.6 ± 4.4 | 43.0 ± 0.2 | 45.9 ± 4.9 | Kp, Ec | Pa, Ec, Ab, Kp, Se, Bc |  | 
5 | CC[C@H](C)[C@H](N)C(=O)N[C@@H](CC(C)C)C(=O)N1CCC[C@H]1C(=O)N[C@@H](Cc1c[nH]c2ccccc12)C(=O)N[C@@H](CCCCN)C(=O)N[C@@H](Cc1c[nH]c2ccccc12)C(=O)N1CCC[C@H]1C(=O)N[C@@H](Cc1c[nH]c2ccccc12)C(=O)N[C@@H](Cc1c[nH]c2ccccc12)C(=O)N1CCC[C@H]1C(=O)N[C@@H](Cc1c[nH]c2ccccc12)C(=O)N[C@@H](CCCNC(=N)N)C(=O)N[C@@H](CCCNC(=N)N)C(N)=O [Indolicidin] |  |  |  |  | 95.1 ± 5.0 | 100.0 ± 4.4 | 100.0 ± 2.5 | Xf |  | 2.46 ± 0.11 | Biofilm formation Level (antibiofilm activity) [1]: High (key: High: high antibiofilm activity (ratio of biofilm formation from 0.01 to 0.2); Moderate: moderate activity (ratio from 0.29 to 0.47); Low: low activity (ratio from 0.72 to 0.77)); Biofilm formation Ratio (treatment/NTC) [1]: 0.09 ± 0.01; Planktonic cells Ratio (treatment/NTC) [1]: 0.46 ± 0.07; log reduction of cell viability ([2]; 3 h, 50 μM): 2-3 log
6 | CC[C@H](C)[C@H](NC(=O)[C@H](CCCNC(=N)N)NC(=O)[C@H](CCCNC(=N)N)NC(=O)[C@H](Cc1c[nH]c2ccccc12)NC(=O)[C@H](Cc1ccccc1)NC(=O)[C@@H](N)C(C)C)C(=O)N[C@@H](CCCNC(=N)N)C(=O)N[C@H](C(=O)N[C@@H](Cc1c[nH]c2ccccc12)C(=O)N[C@H](C(=O)N[C@H](C(=O)N[C@@H](CCCNC(=N)N)C(N)=O)[C@@H](C)CC)C(C)C)C(C)C [LJK2] (H-VFWRRIRVWVIR-NH2) |  |  |  |  | 28.4 ± 1.9 | 43.9 ± 3.7 | 72.4 ± 8.9 |  |  | 0.80 ± 0.10 | Effect on X. fastidiosa growth in the antibiofilm test [1]: affected X. fastidiosa’s growth
7 | CC[C@H](C)[C@H](NC(=O)[C@H](CCCNC(=N)N)NC(=O)[C@@H](NC(=O)[C@H](Cc1c[nH]c2ccccc12)NC(=O)[C@@H](NC(=O)[C@@H](NC(=O)[C@@H](N)CCCNC(=N)N)[C@@H](C)CC)C(C)C)C(C)C)C(=O)N[C@@H](CCCNC(=N)N)C(=O)N[C@@H](CCCNC(=N)N)C(=O)N[C@@H](Cc1c[nH]c2ccccc12)C(=O)N[C@@H](Cc1ccccc1)C(=O)N[C@H](C(N)=O)C(C)C [RJK2] (H-RIVWVRIRRWFV-NH2) | High (key: High: high antibiofilm activity (ratio of biofilm formation from 0.01 to 0.2); Moderate: moderate activity (ratio from 0.29 to 0.47); Low: low activity (ratio from 0.72 to 0.77)) | 0.02 ± 0.00 | 1.54 ± 0.07 | 0.70 ± 0.08 | 19.2 ± 3.1 | 29.6 ± 2.2 | 50.2 ± 5.4 |  |  |  | 
8 | CC[C@H](C)[C@H](NC(=O)[C@H](CCCNC(=N)N)NC(=O)[C@H](CCCNC(=N)N)NC(=O)[C@H](CC(C)C)NC(=O)[C@H](Cc1c[nH]c2ccccc12)NC(=O)[C@H](C)NC(=O)[C@H](CCCCN)NC(=O)[C@@H](NC(=O)[C@H](CCCNC(=N)N)NC(=O)[C@H](CCCNC(=N)N)NC(=O)[C@H](CC(C)C)NC(=O)[C@@H](N)Cc1c[nH]c2ccccc12)[C@@H](C)CC)C(=O)N[C@@H](CCCCN)C(=O)N[C@@H](C)C(=O)O [RR4-OH] | High (key: High: high antibiofilm activity (ratio of biofilm formation from 0.01 to 0.2); Moderate: moderate activity (ratio from 0.29 to 0.47); Low: low activity (ratio from 0.72 to 0.77)) | 0.09 ± 0.01 | 1.87 ± 0.10 | 1.94 ± 0.03 | 3.2 ± 1.0 | 9.8 ± 3.7 | 17.8 ± 0.3 | Pa, Ab | Pa, Ab |  | 
9 | HOC11H22CO-ILPFKFPFFPFRR-NH2 [BP529] | High (key: High: high antibiofilm activity (ratio of biofilm formation from 0.01 to 0.2); Moderate: moderate activity (ratio from 0.29 to 0.47); Low: low activity (ratio from 0.72 to 0.77)) | 0.12 ± 0.03 | 2.29 ± 0.03 | 0.62 ± 0.09 | 7.2 ± 0.3 | 12.5 ± 0.6 | 39.0 ± 1.1 |  |  |  | 
10 | KRIVKLILKWLR-NH2 [KR-12-a5] |  |  |  | 1.40 ± 0.07 | 79.0 ± 0.6 | 96.1 ± 1.8 | 100.0 ± 1.7 | Ec, Pa, Se | Pa |  | Effect on X. fastidiosa growth in the antibiofilm test ([1]; 50 µM): affected X. fastidiosa’s growth
11 | Magainin 2 |  |  |  | 3.29 ± 0.11 | 35.2 ± 1.1 | 54.5 ± 3.7 | 71.1 ± 6.0 | Xf |  |  | Biofilm formation Level (antibiofilm activity) ([1]; 12.5 μM): Moderate (key: High: high antibiofilm activity (ratio of biofilm formation from 0.01 to 0.2); Moderate: moderate activity (ratio from 0.29 to 0.47); Low: low activity (ratio from 0.72 to 0.77)); Biofilm formation Ratio (treatment/NTC) ([1]; 28°C, 5 days): 0.47 ± 0.02; Planktonic cells Ratio (treatment/NTC) ([1]; 28°C, 5 days): 1.59 ± 0.13; Bactericidal activity: Reduction in viability (Log N0/N) ([2]; 3.1 µM): 0.49 ± 0.10 Log N0/N; log reduction ([2]; 3.1 µM): poorly active; Bactericidal activity: Reduction in viability (Log N0/N) ([2]; 12.5 μM): 2.07 ± 0.12 Log N0/N; log reduction ([2]; 12.5 μM): 2 log
